The record followed here is paper PMC7004151, “Synthesis and Structure‐Activity Relationships of N‐(4‐Benzamidino)‐Oxazolidinones: Potent and Selective Inhibitors of Kallikrein‐Related Peptidase 6” (Chemmedchem, 2019).

One assay deals with T1, Human Factor Xa (Homo sapiens, UniProt P00742).
T1 construct: Human Factor Xa was purchased from Enzo Life Sciences; purchased Enzo Life Sciences
The experiment in a line: Factor Xa enzyme inhibition assay. Type of assay: biochemical. Particulars: read-out: Factor Xa pIC50 (converted). The protocol:
Human thrombin was purchased from Biopur. Human trypsin was purchased from Polymun Scientific. Human Factor Xa was purchased from Enzo Life Sciences. Thrombin (20 nM), trypsin (0.000015 %) or Factor Xa (10 nM) were assayed in a similar manner to the KLKs but were incubated with compound for 20 min at room temperature in assay buffer (50 mM Tris HCl, pH 7.6, 100 mM NaCl, 1 mg/ml CHAPS, 0.05 % bovine serum albumin (BSA), 1 mM dithiothreitol (DTT)) before the addition of 5 μM, 2.5 μM or 1.5 μM Rhodamine 110 substrate (Cambridge bioscience ltd) respectively. Fluorescence intensity was then read at ex/em 485/535 following incubation for 1 h at room temperature (thrombin and factor Xa) or 20 min (trypsin).

Another assay relates to HCT116 cells. Kind of assay: HCT116 Matrigel invasion assay. The assay is classed as cell-based. The note with it: after 24 h; 9 at multiple concentrations; 32 at 50 nM and 500 nM. On the procedure:
Figure 5 HCT116 cells were treated with 9 or 32 at the indicated concentrations and plated on Matrigel®‐coated filters. The upper chamber contained serum‐free medium, while the lower chamber contained 10 % fetal bovine serum. After 24 h, the number of invading cells was measured optically. (A) This figure is one representative example of four biological replicates, each with similar outcomes. Error bars are SEM. Technical replicates: DMSO and 9 at 5 nM (n=3); 9 at 50 and 500 nM and 32 at all concentrations (n=6). Statistical significance was calculated using an unpaired two‐tailed t‐test. n.s=p≥0.05; **=p<0.01; ***=p<0.001. (B) Representative images (Scale bar, […]) of stained invaded cells outside of the inserts 24 h hours after treatment with 9, 32, or DMSO solvent control at the indicated concentrations. Phase contrast images were taken with EVOS FL Cell imagine system FL Auto microscope (Bio‐Rad).
Invasion assay: The HCT116 colorectal adenocarcinoma cell line (ATCC® CCL‐247™) was maintained in Dulbecco's Modified Eagle Medium (DMEM) with […] glucose, L‐glutamine w/o sodium pyruvate, supplemented with 10 % FBS and 1 % penicillin/streptomycin. […] The samples were transferred to a new 96 well plate and read at 560 nm on a Synergy 2 Multi‐Detection Microplate Reader (Bio‐Tek Instruments, Inc., Winooski, VT).

T1 sequence (P00742 235-488 limits assumed): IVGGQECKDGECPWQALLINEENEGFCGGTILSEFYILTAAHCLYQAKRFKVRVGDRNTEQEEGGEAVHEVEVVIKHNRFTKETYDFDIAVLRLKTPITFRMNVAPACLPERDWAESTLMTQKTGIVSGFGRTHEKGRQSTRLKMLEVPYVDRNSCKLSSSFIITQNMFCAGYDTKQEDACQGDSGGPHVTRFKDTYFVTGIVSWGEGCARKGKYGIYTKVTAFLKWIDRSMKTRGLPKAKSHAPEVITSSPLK
T1 sequence (P00742 41-179 partner limits assumed): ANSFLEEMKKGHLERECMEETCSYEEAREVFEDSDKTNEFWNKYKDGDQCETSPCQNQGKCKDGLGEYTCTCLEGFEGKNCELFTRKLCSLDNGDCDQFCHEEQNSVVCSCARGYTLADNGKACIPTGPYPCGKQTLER

With `CC[C@H](NC(=O)[C@H]1CN(c2ccc(C(=N)N)cc2)C(=O)O1)c1cccc2ccccc12` [Compound 32, (5R)‐3‐(4‐carbamimidoylphenyl)‐N‐((S)‐1‐(naphthalen‐1‐yl)propyl)‐2‐oxooxazolidine‐5‐carboxamide], at Human Factor Xa, the IC50 is greater than 20 µM. For the same compound, in the assay with HCT116 cells, the “invasion of HCT116 cells” value is given as “significant reduction in invasion”.
